Results from ChEMBL document CHEMBL5584341, “Discovery of Potent, Specific, and Orally Available NLRP3 Inflammasome Inhibitors Based on Pyridazine Scaffolds for the Treatment of Septic Shock and Peritonitis” (J Med Chem, 2024).
Active and inactive are the calls of the source. The rule behind the calls is not given here.

Experiments:
[1] = system: Mus musculus; assay: Antiinflammatory activity against LPS induced septic shock in BALB/c mouse assessed as reduction in serum IL-1beta level at 25 mg/kg, ip pretreated for 1 hr followed by LPS stimulation and measured after 3 hrs by ELISA; format: functional, organism-based; settings: time 4.0 hrs
[2] = Inhibition of IL-1beta release in PMA-differentiated/ LPS and nigericin stimulated human THP-1 cells at 0.5 uM pretreated with LPS for 3 hrs followed by incubation with compound for 40 mins and later stimulated with nigericin for 40 mins by ELISA; format: functional; settings: THP-1, 1.333 h, time 80 min
[3] = target: NACHT, LRR and PYD domains-containing protein 3 (Mus musculus) (UniProt Q8R4B8); assay: Inhibition of NLRP3 inflammasome activation in LPS/nigericin stimulated mouse BMDMs assessed as effect on pro-caspase-1 expression pretreated with LPS for 3 hrs followed by compound addition for 40 mins prior to nigericin stimulation for 40 mins by Western blotting analysis; format: cell-based; settings: BMDM, time 80.0 min
Chain of NACHT, LRR and PYD domains-containing protein 3 (Mus musculus) (Q8R4B8 whole entry, the tested form may be a part): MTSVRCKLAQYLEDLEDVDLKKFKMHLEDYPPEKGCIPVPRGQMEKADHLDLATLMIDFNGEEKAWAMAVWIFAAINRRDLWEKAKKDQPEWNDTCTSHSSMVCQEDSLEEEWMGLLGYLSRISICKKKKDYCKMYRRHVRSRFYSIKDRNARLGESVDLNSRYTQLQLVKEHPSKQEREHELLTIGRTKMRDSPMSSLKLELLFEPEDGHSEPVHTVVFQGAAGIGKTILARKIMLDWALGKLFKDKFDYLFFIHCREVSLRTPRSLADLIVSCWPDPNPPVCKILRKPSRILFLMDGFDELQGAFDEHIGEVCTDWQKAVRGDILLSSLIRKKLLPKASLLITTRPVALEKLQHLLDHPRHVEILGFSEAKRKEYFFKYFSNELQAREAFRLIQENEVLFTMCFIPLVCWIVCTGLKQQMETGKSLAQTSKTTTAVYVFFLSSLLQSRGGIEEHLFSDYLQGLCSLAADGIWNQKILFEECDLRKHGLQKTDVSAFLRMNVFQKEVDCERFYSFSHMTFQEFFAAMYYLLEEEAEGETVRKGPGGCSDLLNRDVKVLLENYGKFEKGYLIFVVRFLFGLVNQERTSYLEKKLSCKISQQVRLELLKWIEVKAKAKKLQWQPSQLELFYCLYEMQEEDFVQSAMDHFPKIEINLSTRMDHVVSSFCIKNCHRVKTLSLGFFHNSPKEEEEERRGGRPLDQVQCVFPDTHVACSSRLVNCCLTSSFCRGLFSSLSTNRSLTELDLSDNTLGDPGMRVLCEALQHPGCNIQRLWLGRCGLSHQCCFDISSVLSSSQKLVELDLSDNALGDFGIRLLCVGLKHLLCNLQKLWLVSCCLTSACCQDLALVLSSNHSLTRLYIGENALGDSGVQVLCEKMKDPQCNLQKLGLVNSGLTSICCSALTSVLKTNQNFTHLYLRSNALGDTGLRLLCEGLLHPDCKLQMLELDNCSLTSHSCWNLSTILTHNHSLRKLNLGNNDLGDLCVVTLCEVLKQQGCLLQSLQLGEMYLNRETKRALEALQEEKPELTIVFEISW

[4] = Oral bioavailability in BALB/c mouse at 5 mg/kg measured upto 24 hrs by LC-MS/MS analysis; format: ADME, organism-based; settings: in vivo
[5] = system: LX-2; assay: Cytotoxicity against human LX-2 cells at 5 uM incubated for 72 hrs by MTT assay; format: toxicity, cell-based; settings: lx-2, 72 h
[6] = target: NACHT, LRR and PYD domains-containing protein 3 (Mus musculus) (UniProt Q8R4B8); assay: Inhibition of NLRP3 inflammasome activation in mouse BMDMs assessed as effect on NLRP3 expression at 2 to 31.25 nM pretreated with LPS for 3 hrs followed by compound addition for 40 mins; format: cell-based; settings: BMDM, dose 2-31.25 nM

For `OCCN1CCC[C@@H](Nc2nnc(-c3ccc4occc4c3O)c3c2C2CCC3CC2)C1`, the Activity [1] was “Active”, the inhibition at 0.5 µM [2] was 98.9% and the inhibition [3] was “inactive”. The bioavailability [4] was 62%, the Activity [5] was “Non-Toxic” and the inhibition [6] was “inactive”.
